# Measurements taken from ChEMBL document CHEMBL1201862, “PubChem BioAssay data set” (2004).
# Active and inactive are the calls of the source.
# Legend:
# Beta-lactamase [1] = target: Beta-lactamase (Salmonella choleraesuis (strain SC-B67), UniProt Q5J463); experiment: Epi-absorbance-based counterscreen for selective VIM-2 inhibitors: dose response biochemical high throughput screening assay to identify inhibitors of TEM-1 serine-beta-lactamase.
# Beta-lactamase [2] = target: T1, Beta-lactamase (Pseudomonas aeruginosa, UniProt Q79MP6); experiment: IMP-1 metallo-beta-lactamase inhibitors, dose response, selectivity assay for VIM-2 inhibitor project, biochemical, epi-absorbance (AID 1920)
# T1 sequence (Q79MP6 whole entry): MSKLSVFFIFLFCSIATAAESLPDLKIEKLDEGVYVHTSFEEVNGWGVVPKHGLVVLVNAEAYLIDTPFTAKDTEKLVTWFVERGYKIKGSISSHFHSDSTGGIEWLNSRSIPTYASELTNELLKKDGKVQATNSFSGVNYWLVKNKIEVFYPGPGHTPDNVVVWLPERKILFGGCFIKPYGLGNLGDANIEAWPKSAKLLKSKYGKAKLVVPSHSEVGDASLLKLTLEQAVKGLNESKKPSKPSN
# Beta-lactamase [3] = target: T1, Beta-lactamase; experiment: […] counterscreen for selective VIM-2 inhibitors: dose response biochemical high throughput screening assay to identify inhibitors of IMP-1 metallo-beta-lactamase.
# Vero = experiment: Vero cell toxicity, dose response, cytotoxicity control, plate reader, cherry-pick samples (AID 687020); assay type: functional, cell-based; details: Chlorocebus sabaeus
# Beta-galactosidase = Beta-galactosidase (Escherichia coli, UniProt Q8VNN2); experiment: Dose response counterscreen for EBI2 assay utilizing the enzyme, b-galactosidase.; assay type: functional
# Beta-galactosidase, sequence (Q8VNN2 whole entry): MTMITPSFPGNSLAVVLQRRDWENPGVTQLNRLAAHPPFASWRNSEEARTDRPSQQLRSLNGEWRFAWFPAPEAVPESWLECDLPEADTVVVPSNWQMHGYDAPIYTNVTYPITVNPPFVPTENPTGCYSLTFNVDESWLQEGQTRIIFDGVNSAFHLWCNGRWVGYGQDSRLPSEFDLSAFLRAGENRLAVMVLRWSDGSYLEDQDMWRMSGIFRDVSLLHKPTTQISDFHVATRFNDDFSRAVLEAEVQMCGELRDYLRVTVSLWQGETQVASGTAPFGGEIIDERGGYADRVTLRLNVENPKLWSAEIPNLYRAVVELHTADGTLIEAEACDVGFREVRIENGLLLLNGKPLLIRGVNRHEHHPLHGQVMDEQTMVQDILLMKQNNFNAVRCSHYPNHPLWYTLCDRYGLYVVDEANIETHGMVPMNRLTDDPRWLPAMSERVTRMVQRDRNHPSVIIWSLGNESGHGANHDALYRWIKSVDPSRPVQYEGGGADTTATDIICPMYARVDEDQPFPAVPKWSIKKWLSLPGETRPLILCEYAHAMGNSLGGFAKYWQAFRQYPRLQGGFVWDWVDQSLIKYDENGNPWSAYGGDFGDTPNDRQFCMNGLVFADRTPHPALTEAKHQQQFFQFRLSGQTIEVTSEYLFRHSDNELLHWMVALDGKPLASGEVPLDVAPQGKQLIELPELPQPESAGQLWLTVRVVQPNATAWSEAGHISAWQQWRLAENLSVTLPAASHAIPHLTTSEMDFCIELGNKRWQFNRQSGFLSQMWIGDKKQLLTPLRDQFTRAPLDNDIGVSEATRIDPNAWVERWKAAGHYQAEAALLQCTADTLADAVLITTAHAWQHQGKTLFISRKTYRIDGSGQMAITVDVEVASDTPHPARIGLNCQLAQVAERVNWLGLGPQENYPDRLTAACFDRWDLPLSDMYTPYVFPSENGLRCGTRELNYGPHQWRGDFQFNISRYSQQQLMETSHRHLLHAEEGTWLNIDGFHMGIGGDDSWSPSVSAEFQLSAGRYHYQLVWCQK
# [4] = miR-122 activators in hepatoma reporter cells, dose response, cell-based, Huh7 psiCHECK-miR122, Renilla luciferase, cherry-picked (AID 651956); assay type: functional;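 further: huh7 hepatoma cells stably carrying a psiCHECK-2 miR-122 sensor plasmid; renilla luciferase signal reporting endogenous miR-122 activity after 48 h compound exposure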
# [5] = HEK293T cytotoxicity, dose response, cytotoxicity control for miR-122 modulator project, cell-based, inhibitor set, cherry-pick, set 2 (AID 720697); assay type: functional
# [6] = target: T2, Trace amine-associated receptor 1 (Homo sapiens, UniProt Q96RJ0); experiment: Counterscreen for agonists of the human trace amine associated receptor 1 (hTAAR1): Fluorescence-based cell-based high throughput dose response assay to identify hTAAR1 agonist that also desensitize TAAR1 receptor response.; assay type: functional
# T2 sequence (Q96RJ0 whole entry): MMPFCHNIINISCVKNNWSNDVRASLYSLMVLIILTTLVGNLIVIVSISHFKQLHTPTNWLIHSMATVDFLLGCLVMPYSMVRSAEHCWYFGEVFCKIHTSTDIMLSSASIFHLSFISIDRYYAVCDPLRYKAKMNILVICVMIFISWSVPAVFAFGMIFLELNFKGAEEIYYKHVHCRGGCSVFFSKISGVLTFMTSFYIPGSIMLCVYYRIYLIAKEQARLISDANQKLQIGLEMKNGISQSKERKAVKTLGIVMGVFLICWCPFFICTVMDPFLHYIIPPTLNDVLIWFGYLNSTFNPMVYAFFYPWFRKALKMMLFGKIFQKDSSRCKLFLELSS
# cells [7] = assay type: functional, cell-based
# [8] = target: T2, Trace amine-associated receptor 1; experiment: Fluorescence-based cell-based high throughput dose response assay to identify agonists of the human trace amine associated receptor 1 (TAAR1).; assay type: functional
# cells [9] = assay type: functional, cell-based; remark: listed apart in the source
# [10] = target: Potassium channel subfamily K member 3 (Rattus norvegicus, UniProt O54912); experiment: SAR analysis for the identification of selective inhibitors of the two-pore domain potassium channel TASK1(KCNK3):Automated Electrophysiology.; assay type: functional
# Potassium channel subfamily K member 3 (Rattus norvegicus, UniProt O54912), sequence (O54912 whole entry, the tested form may be a part): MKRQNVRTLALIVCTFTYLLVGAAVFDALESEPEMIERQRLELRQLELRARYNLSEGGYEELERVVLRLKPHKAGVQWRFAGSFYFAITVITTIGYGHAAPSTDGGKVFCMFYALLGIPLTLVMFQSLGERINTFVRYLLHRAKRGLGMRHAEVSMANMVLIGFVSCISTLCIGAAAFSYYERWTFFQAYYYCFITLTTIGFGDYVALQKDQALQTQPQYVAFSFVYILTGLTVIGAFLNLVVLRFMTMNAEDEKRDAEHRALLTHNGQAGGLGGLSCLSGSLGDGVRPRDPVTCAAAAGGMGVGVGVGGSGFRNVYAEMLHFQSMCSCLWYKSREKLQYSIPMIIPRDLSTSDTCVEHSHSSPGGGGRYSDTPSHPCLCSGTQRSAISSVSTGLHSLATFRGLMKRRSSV
# [11] = target: Potassium channel subfamily K member 3 (Homo sapiens, UniProt O14649); experiment: TASK1 (KCNK3) potassium channel inhibitors, SAR follow-up, CHO cells, FluxOR thallium flux (AID 652212); assay type: functional
# Potassium channel subfamily K member 3 (Homo sapiens, UniProt O14649), sequence (O14649 whole entry): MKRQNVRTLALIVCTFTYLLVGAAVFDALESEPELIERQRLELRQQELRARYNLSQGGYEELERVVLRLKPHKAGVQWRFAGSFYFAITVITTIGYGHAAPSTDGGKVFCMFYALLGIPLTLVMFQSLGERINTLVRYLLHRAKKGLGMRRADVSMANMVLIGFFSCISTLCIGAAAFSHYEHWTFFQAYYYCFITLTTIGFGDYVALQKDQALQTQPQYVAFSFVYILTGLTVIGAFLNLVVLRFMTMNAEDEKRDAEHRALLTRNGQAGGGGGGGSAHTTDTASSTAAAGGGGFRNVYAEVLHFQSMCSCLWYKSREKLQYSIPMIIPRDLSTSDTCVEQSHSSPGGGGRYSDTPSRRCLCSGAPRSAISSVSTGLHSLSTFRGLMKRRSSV
# [12] = target: Potassium channel subfamily K member 9 (Homo sapiens, UniProt Q9NPC2); experiment: TASK3 (KCNK9) channel inhibitors, thallium flux, SAR follow-up, selectivity assay for TASK1 inhibitor project, cell-based, FluxOR thallium flux, concentration-response (AID 652211); assay type: functional;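 further: potency is for inhibitors of the channel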
# Potassium channel subfamily K member 9, sequence (Q9NPC2 whole entry): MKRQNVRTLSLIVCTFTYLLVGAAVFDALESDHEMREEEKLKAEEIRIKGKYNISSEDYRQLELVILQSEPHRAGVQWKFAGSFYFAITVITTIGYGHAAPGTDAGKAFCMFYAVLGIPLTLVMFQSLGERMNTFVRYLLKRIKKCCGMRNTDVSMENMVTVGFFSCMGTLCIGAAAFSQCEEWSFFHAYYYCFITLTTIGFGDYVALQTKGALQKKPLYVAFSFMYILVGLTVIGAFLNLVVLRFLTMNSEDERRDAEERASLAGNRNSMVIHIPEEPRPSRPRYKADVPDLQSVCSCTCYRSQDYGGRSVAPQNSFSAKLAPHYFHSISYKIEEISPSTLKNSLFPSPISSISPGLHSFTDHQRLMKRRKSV
# Beta-lactamase (Salmonella choleraesuis (strain SC-B67), UniProt Q5J463), sequence (Q5J463 whole entry): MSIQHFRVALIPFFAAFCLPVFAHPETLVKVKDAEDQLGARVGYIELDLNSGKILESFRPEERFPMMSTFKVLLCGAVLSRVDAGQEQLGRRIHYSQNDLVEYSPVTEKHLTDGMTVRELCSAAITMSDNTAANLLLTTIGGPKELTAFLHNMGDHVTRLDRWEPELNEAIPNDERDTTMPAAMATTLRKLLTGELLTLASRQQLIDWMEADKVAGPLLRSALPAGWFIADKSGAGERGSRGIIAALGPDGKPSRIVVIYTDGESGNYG
structure (smiles),measurement,setting,value
Sc1nnc(-c2ccco2)n1-c1cccc2ccccc12,IC50,Beta-lactamase [1],> 59.6 µM (inactive)
same,IC50,Beta-lactamase [2],> 59.6 µM (inactive)
same,IC50,Beta-lactamase [3],> 59.6 µM (inactive)
CN1C[C@@H]2[C@@H]3C(=O)N(Cc4ccccc4)C(=O)[C@@H]3[C@](C)(C1=O)N2C(=O)c1ccc(C(C)(C)C)cc1,AC50,Vero,24.6 µM (active)
O=C(/C=C/c1ccc(F)cc1)N1CCN(Cc2ccccc2)CC1,IC50,Beta-galactosidase,> 80 µM (inactive)
C[C@H]1CN([C@@H](C)CO)S(=O)(=O)c2ccc(-c3ccc(C(=O)N(C)C)cc3)cc2O[C@H]1CN(C)C(=O)C1CCC1,AC50,[4],10.9 µM (active)
same,AC50,[5],2.2 µM (active)
CC(C)[C@H](NC(=O)CC1CCCC1)C(=O)N1CCC[C@H]1C(=O)NCCc1ccccc1Cl,IC50,[6],4 µM (active)
same,IC50,cells [7],> 29.9 µM (inactive)
same,EC50,[8],2.01 µM (active)
same,EC50,cells [9],> 29.9 µM (inactive)
Cc1cccc(C(=O)Nc2cccc(NC(=O)c3ccccc3OC(F)(F)F)c2)c1,IC50,[10],0.06 µM (active)
same,IC50,[11],0.028 µM (active)
same,IC50,[12],1.05 µM (active)
